In brackets after ≈: the same amount, converted by molar mass.
Test system: HIV 1
Test: Inhibition of HIV-induced syncytium formation in cultures of human lymphocytes (test of preparations against HIV in cell culture, microscopic reading on day 4 after infection)
Format: cell-based
Conditions: Human immunodeficiency virus 1, 96 h, footnote of Tabelle 1, AZT alone, read-out: MHK-Wert
Protocol: RPMI pH 6,8 Komplettes Medium enthält zusätzlich 20 % foetales Kälberserum und 20 IU/ml rekombinantes Interleukin 2.
Aus frischem Spenderblut mittels Ficoll^R-Gradientenzentrifugation isolierte Lymphozyten werden unter Zusatz von 2 µg/ml Phytohämagglutinin (Wellcome) in komplettem Medium 36 h bei 37°C unter 5 % CO₂ kultiviert. Die Zellen werden nach Zusatz von 10 % DMSO bei einer Zelldichte von 5 x 10⁶ eingefroren und in flüssigem Stickstoff gelagert. Für den Versuch werden die Zellen aufgetaut, in RPMI-Medium gewaschen und in komplettem Medium 3 - 4 Tage kultiviert.
Die Prüfpräparate werden in komplettem Medium gelöst, üblicherweise in einer Konzentration von 1,2 mg/ml. In 24er Multiwell-Schalen werden jeweils 0,5 ml komplettes Medium gegeben. Nach Zusatz von 0,1 ml des gelösten Präparates wird durch Übertragung von jeweils 0,1 ml das Präparat in einer geometrischen Verdünnungsreihe, […], verdünnt. Zu allen Ansätzen werden 0,4 ml einer Suspension mit 5 x 10⁵ Lymphozyten pro ml gegeben.
Die Ansätze werden mit 0,1 ml eines Überstandes von HIV 1 infizierten Lymphozyten versetzt, der so eingestellt ist, daß im Ansatz der cytopathogene Effekt nach 3 - 4 Tagen erkennbar ist. Die Multiplizität der infektiösen Einheit beträgt hierbei 0,01 - 0,02.
Der Versuchsansatz enhält damit folgende Komponenten in komplettem Medium [formula] […]

## Cc1cn([C@H]2C[C@H](N=[N+]=[N-])[C@@H](CO)O2)c(=O)[nH]c1=O [3′-Azido-3′-deoxythymidin]
  MIC: 0.1 µg/mL (≈ 0.374 µM)

From patent publication EP0377846A1, “Pharmaceutical mixture preparation containing nucleoside derivatives and pentosan polysulfate, and its manufacture and use” (HOECHST AKTIENGESELLSCHAFT, priority 1988, dated 1990)
